Measurements published in patent US9518976B2, “Methods for identifying or assaying for agents that increase beta-cell proliferation, insulin secretion, insulin sensitivity, glucose tolerance and decrease fat mass” (The Trustees of Columbia University in The City of New York, priority 2006, dated 2016).
Ends that are not written are not given here.

What was measured:
Type in all cases: in vivo, mouse
Wild type mice [1] = assay: Osteocalcin subcutaneous infusion in wt mice: glucose tolerance after glucose injection; conditions: 0.3 or 3 ng/hour s.c. for 14 days, then single glucose injection, 120 minute period, vs PBS
Procedure: FIG. 11. […] Wt mice were infused subcutaneously with indicated doses of recombinant osteocalcin or PBS for 14 days before receiving a single injection of glucose. Blood glucose was measured thereafter at indicated times.
(§1) For glucose tolerance test (GTT), glucose (2 g/kg body weight (BW)) was injected intraperitoneally (IP) after an overnight fast and blood glucose was monitored using blood glucose strips and the Accu-Check glucometer (Roche) at indicated times. For glucose stimulated insulin secretion test (GSIS), glucose (3 g/kg BW) was injected IP after an overnight fast; sera were collected from tails and insulin measured as described (Mauvais-Jarvis et al., 2000). For insulin tolerance test (ITT), mice were fasted for six hours, injected IP with insulin (0.2 U/kg BW) and blood glucose levels were measured at indicated times as described (Mauvais-Jarvis et al., 2002). ITT data are presented as percentage of initial blood glucose concentration. […] Streptozotocin ([…] single injection, Sigma) was injected IP and blood glucose measured as described above every 2 days thereafter. […] Food intake was measured using metabolic cages as the daily change of food weight. Energy expenditure was measured using metabolic cages connected to a calorimeter (Columbus Instrument). Heat values (Kcal/Hr) were recorded over 2 days and reported to each mouse BW. […]

Wild type mice [2] = assay: Osteocalcin subcutaneous infusion in wt mice: insulin sensitivity after insulin injection; conditions: 0.3 or 3 ng/hour s.c. for 18 days, then single insulin injection, 0-120 minutes, vs PBS
Procedure: FIG. 12. […] Wt mice were infused subcutaneously with indicated doses of recombinant osteocalcin or PBS for 18 days before receiving a single injection of insulin. Blood glucose was measured thereafter at indicated times.
as §1

[3] = Osteocalcin subcutaneous infusion in wt mice: body weight and gonadal fat pad mass
Procedure: FIG. 13. […] 1) Indicated doses of recombinant osteocalcin or PBS were infused subcutaneously for 28 days in wt mice. Body weight was recorded at indicated days. (2). Gonadal fat pad mass was measured after 28 days.
In another in vivo experiment, the effect of uncarboxylated osteocalcin on body weight and fat pad mass was monitored (FIG. 13). Wild type mice were infused subcutaneously for 28 days with PBS or uncarboxylated osteocalcin at 0.3, 1 or 3 ng/hour. […] (FIG. 13) Gonadal fat pad mass, measured after 28 days, decreased by about % 18 with 3 ng/hour uncarboxylated osteocalcin treatment.

[4] = system: GTG-induced obesity in wt mice; assay: Osteocalcin subcutaneous infusion in gold thioglucose (GTG)-injected wt mice: body weight gain; conditions: GTG-injected wild type mice; for body weight gain: 1 ng/hr s.c. osmotic pump for 28 days, from 7 days on, vs PBS
Procedure: FIG. 14. […] Wt mice were injected with gold thioglucose (GTG) or vehicle to induce hyperphagia and obesity. Two weeks later they were implanted with subcutaneous osmotic pumps infusing […] of recombinant osteocalcin or PBS for 28 days before. Body weight gain was recorded thereafter at indicated days.
The effect of uncarboxylated osteocalcin on GTG-induced obesity was investigated (FIG. 14). Wild type mice were injected with gold thioglucose (GTG) to induce hyperphagia and obesity or vehicle. Two weeks later they were implanted with subcutaneous osmotic pumps infusing 1 ng/hr of recombinant uncarboxylated osteocalcin or PBS for 28 days. […] At 28 days, body weight was reduced by about 15% with uncarboxylated osteocalcin treatment.

[5] = listed as recombinant osteocalcin

uncarboxylated osteocalcin: Recombinant mouse osteocalcin bacterially produced, cleaved from GST with thrombin; completely undercarboxylated at all three sites (YLGASVPSPDPLEPTREQCELNPACDELSDQYGLKTAYKRIYGITI; not fully specified; ends and bridges not checked; UniProt P86546 50-95, looked up)
glucose tolerance (Wild type mice [1]): increased glucose tolerance
glucose tolerance (Wild type mice [1]; [5]): increases glucose tolerance
insulin sensitivity (Wild type mice [2]): increased
insulin sensitivity (Wild type mice [2]; [5]): increases insulin sensitivity
gonadal fat pad mass decrease ([3]; wild type mice, 3 ng/hour s.c., after 28 days): ~18%
body weight ([3]; wild type mice, 0.3, 1 or 3 ng/hour s.c. for 28 days, highest dose most effective): slightly reduced
gonadal fat pad mass ([3]; wild type mice, the other doses (0.3, 1 ng/hour), 28 days): did not significantly decrease
fat mass ([3]; wt mice, indicated doses s.c. for 28 days (FIG. 13 legend)): decreases fat mass
body weight gain [4]: significantly reduced
body weight gain [4, 5]: prevents GTG-induced obesity
body weight reduction ([4]; 1 ng/hr s.c., at 28 days): about 15%
